Assay results published in patent US8299066B2, “Compounds having NPY Y5 receptor antagonistic activity” (Shionogi & Co., Ltd., priority 2008, dated 2012).
pIC50: −log10 of the molar value.

Key:
[1] = molecular target: T1, mouse NPY Y5 receptor (Mus musculus, UniProt O70342); test: Affinity for mouse NPY Y5 receptor ([125I] peptide YY binding, CHO cell membranes); details: inhibition of specific [125I] peptide YY binding, membranes of CHO cells expressing mouse NPY Y5 receptor
T1 construct: expressed in transfected cells
T1 sequence (O70342 1-466): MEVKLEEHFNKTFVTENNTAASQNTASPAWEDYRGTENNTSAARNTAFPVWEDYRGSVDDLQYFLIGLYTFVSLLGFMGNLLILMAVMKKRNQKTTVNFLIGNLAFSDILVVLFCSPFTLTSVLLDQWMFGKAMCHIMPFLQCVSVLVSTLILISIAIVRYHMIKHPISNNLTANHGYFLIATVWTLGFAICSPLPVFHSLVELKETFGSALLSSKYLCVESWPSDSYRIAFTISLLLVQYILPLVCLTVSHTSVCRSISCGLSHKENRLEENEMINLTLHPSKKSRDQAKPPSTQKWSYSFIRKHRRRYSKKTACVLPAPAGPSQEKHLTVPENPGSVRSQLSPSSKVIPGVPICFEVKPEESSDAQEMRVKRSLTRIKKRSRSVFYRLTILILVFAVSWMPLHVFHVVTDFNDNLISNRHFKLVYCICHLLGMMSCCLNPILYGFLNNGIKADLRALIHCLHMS
Text: cDNA sequence encoding a mouse NPY Y5 receptor (Biochim. Biophys. Acta 1328:83-89, 1997) was cloned in a vector (pME18S, Takebe et al. Mol. Cell. Biol. 8, 8957). The obtained expression vector was transfected into CHO cells as a host by using Lipofect AMINE Reagent (Trademark, Gico BRL Co., Ltd.) according to the instruction manual. The cells that stably express NPY Y5 receptor were obtained.
The membranes prepared from the CHO cells expressing NPY Y5 receptor, the compound of this invention and 30,000 cpm [^125I] peptide YY (60 pM of final concentration: Amersham) were incubated in the assay buffer (20 mM HEPES-Hanks buffer containing 0.1% bovine serum albumin, pH 7.4) at 25° C. for 2 hours, and then the membrane was filtered from the mixture through a glass filter (GF/C) presoaked with 1% polyethyleneimine. After washing with 50 mM Tris-HCl buffer (pH 7.4), radioactivity retained on the filters was quantified with a gamma counter. Nonspecific binding was defined as the amount of radioactivity bound to the membranes after incubation in the presence of 200 nM of peptide YY. The 50% inhibitory concentration of the test compound against the specific peptide YY binding (IC50 value) was calculated (Inui, A. et al. Endocrinology 131, 2090-2096 (1992)).

[2] = Evaluation for brain penetration in mice (cassette dosing); type: in vivo; details: male, Jcl; C57BL/6J, mouse; brain/plasma partition coefficient, 3 or 5 hours after oral administration (2 mg/10 mL/kg) in mice
Experimental: (§1) By using the cassette dosing method (Drug. Metab. Dispos. (2001); 29, 957-966), brain penetration rate of the compounds (brain/plasma partition coefficients; Kp) were evaluated from plasma and brain concentrations at 30 minutes after intravenous administration (0.5 mg/mL/kg) in rats (Crl; CD (SD), ♂, 8 weeks) or at 3 or 5 hours after oral administration (2 mg/10 mL/kg) in mice (Jcl; C57BL/6J, ♂, 8 weeks).

[3] = Evaluation for brain penetration in rats (cassette dosing); type: in vivo; details: male, Crl; CD (SD), rat; brain/plasma partition coefficient, 30 minutes after intravenous administration (0.5 mg/mL/kg) in rats
Experimental: as §1

[4] = Pharmacokinetic analysis in rats (cassette dosing, intravenous); type: in vivo; details: male, Crl, CD (SD), rat, plasma, intravenous administration (0.5 mg/mL/kg); for clearance: read-out: Rat CLtot; for half-life: read-out: Rat t½ (converted)
Experimental: By using the cassette dosing method, half-life (t1/2) and total clearance (CLtot) of the compounds of this invention were estimated from change in plasma concentration of each compound in rats (Crl; CD (SD), ♂, 8 weeks) after intravenous administration (0.5 mg/mL/kg).

[5] = molecular target: T2, NPY Y5 receptor (Mus musculus, UniProt O70342); test: Food intake in mice induced by ICV NPY Y5 receptor specific agonist; type: in vivo
T2 construct: from tissue
T2 sequence (O70342 1-466): T1 sequence (O70342 1-466)
Experimental: Under diethylether anesthesia the skull of male C57BL/6J mice (12-14 week old, 25-30 g) was exposed by making an incision about 1-cm long from external occipital crest to nasal dorsum, and drilled in the 1-mm lateral position to the left following 1-mm posterior from bregma. After recovery from anesthesia mice were dosed with either 0.5% hydroxypropylmethyl cellulose solution (Shin-Etsu Chemical Co., Ltd) or the compounds of this invention suspended in the 0.5% hydroxypropylmethyl cellulose solution. At one hour after the treatment, each animal received a NPY Y5 receptor specific agonist, [cPP^1-7, NPY^19-23, Ala^31, Aib^32, Gln^34]-hPancreatic Polypeptide (0.1 nmol/1.5 μL/mouse) through the skull opening using a canula. Residual food was measured at 2 and 4 hours after the treatment, and the difference in food intake between the compounds-treated mice and 0.5% hydroxypropylmethyl cellulose solution-treated mice was calculated. The compound at 6 mg/kg caused a significant reduction in food intake of mice compared to the treatment with 0.5% hydroxypropylmethyl cellulose solution.
For example, mean food intakes at 2 and 4 hours after oral administration of Compound IVa-9 at 6 mg/kg in mice (Group A) were 0.24±0.05 g and 0.51±0.06 g, respectively. On the other hand, mean food intakes at 2 and 4 hours after oral administration of 0.5% hydroxypropylmethyl cellulose solution in mice (Group B) were 0.58±0.07 g and 1.26±0.10 g, respectively. Also, mean food intakes at 2 and 4 hours after oral administration of 0.5% hydroxypropylmethyl cellulose solution without ICV injection of NPY Y5 receptor specific agonist in mice (Group C) were 0.06±0.04 g and 0.14±0.05 g, respectively. After subtracting the mean value of Group C from that of Group A or B, the inhibition rates of the compound on food intake at 2 and 4 hours after administration in Group A against Group B were estimated.

Row | SMILES | pIC50 [1] | Kp at 5 h [2] | Kp at 0.5 h [3] | clearance [4] [mL/min/kg] | half-life [4] [h] | further results
1 | CC(C)(C)S(=O)(=O)N[C@H]1CC[C@H](c2nc(-c3ccccc3)c(Cl)[nH]2)CC1 [IIIb-1] | – | – | – | 3.46 | 4.04 | –
2 | COc1cccc(-c2nc([C@H]3CC[C@H](NS(=O)(=O)C(C)(C)C)CC3)[nH]c2C(F)(F)F)c1 [IIIb-7] | 9.15 | – | – | – | – | –
3 | CC(C)(C)S(=O)(=O)N[C@H]1CC[C@H](c2nc(-c3cccc(C#N)c3)c[nH]2)CC1 [IIIa-13] | – | – | – | 14.5 | 1.17 | –
4 | CC(C)(C)S(=O)(=O)N[C@H]1CC[C@H](c2nc(-c3ccccc3)c[nH]2)CC1 [IIIa-1] | 9.07 | – | – | – | – | –
5 | CC(C)(C)S(=O)(=O)N[C@H]1CC[C@H](c2cc(-c3ccc(F)cc3)n[nH]2)CC1 [IVa-9] | – | 2.41 | 2.28 | 2.67 | 13.6 | inhibition rate on food intake at 2 hours ([5]; 6 mg/kg oral, Group A against Group B after subtracting Group C, 2 hours): 65.4%; inhibition rate on food intake at 4 hours ([5]; 6 mg/kg oral, Group A against Group B after subtracting Group C, 4 hours): 67.0%; mean food intake at 2 hours ([5]; oral administration at 6 mg/kg in mice, ICV NPY Y5 agonist, 2 hours): 0.24 ± 0.05 g; mean food intake at 4 hours ([5]; oral administration at 6 mg/kg in mice, ICV NPY Y5 agonist, 4 hours): 0.51 ± 0.06 g
6 | CC(C)(C)S(=O)(=O)N[C@H]1CC[C@H](c2cc(-c3ccccc3)n[nH]2)CC1 [IVa-3] | 8.85 | 1.78 | 3.69 | 7.43 | 3.82 | –
7 | CC(C)(C)S(=O)(=O)N[C@H]1CC[C@H](c2nc(-c3ccc(Cl)c(Cl)c3)c[nH]2)CC1 [IIIa-4] | – | 0.45 | 1.37 | 14.8 | 2.96 | –
8 | Cc1c(-c2ccccc2)n[nH]c1[C@H]1CC[C@H](NS(=O)(=O)C(C)(C)C)CC1 [IVb-1] | – | 1.44 | 1.88 | – | – | –
9 | CC(C)(C)S(=O)(=O)N[C@H]1CC[C@H](c2[nH]cc(-c3ccccc3)c2C#N)CC1 [IIa-3] | 9.66 | – | – | – | – | –
10 | CC(C)(C)S(=O)(=O)N[C@H]1CC[C@H](c2nc(-c3ccccc3)c(C(F)(F)F)[nH]2)CC1 [IIIb-5] | – | – | – | 3.84 | 7.67 | –

Now from value to compound, other results behind:

Row | pIC50 [1] | Kp at 5 h [2] | Kp at 0.5 h [3] | clearance [4] [mL/min/kg] | half-life [4] [h] | SMILES | further results
11 | 8.26 | – | – | – | – | CC(C)(C)S(=O)(=O)N[C@H]1CC[C@H](c2cc3ccc(-c4ccccn4)cc3[nH]2)CC1 [Ia-18] | –
12 | – | 0.89 | 1.91 | – | – | CC(C)(C)S(=O)(=O)N[C@H]1CC[C@H](c2cc3nc(-c4ccc(F)cc4)ncc3[nH]2)CC1 [Ib-35] | –
13 | – | 1.33 | 2.3 | – | – | CC(C)(C)S(=O)(=O)N[C@H]1CC[C@H](c2cc3nc(-c4ccccc4F)ccc3[nH]2)CC1 [Ib-13] | –
14 | 9.12 | – | – | – | – | CC(C)(C)S(=O)(=O)N[C@H]1CC[C@H](c2cc3cc(-c4ccccn4)cnc3[nH]2)CC1 [Ib-32] | –
15 | 9.43 | – | – | – | – | CC(C)(C)S(=O)(=O)N[C@H]1CC[C@H](c2[nH]nc(-c3ccccc3)c2C#N)CC1 [IVb-23] | –
16 | – | 2.11 | 3.55 | 17.8 | 1.57 | CC(C)(C)S(=O)(=O)N[C@H]1CC[C@H](c2cc3cc(-c4ncccn4)ccc3[nH]2)CC1 [Ia-8] | –
17 | 8.89 | – | – | – | – | CC(C)(C)S(=O)(=O)N[C@H]1CC[C@H](c2cc3c(-c4ccccn4)cncc3[nH]2)CC1 [Ib-28] | –
18 | 8.96 | – | – | – | – | CC(C)(C)S(=O)(=O)N[C@H]1CC[C@H](c2cc3c(-c4ccccn4)cccc3[nH]2)CC1 [Ia-2] | –
19 | – | 3.14 | 5.84 | 4.04 | 8.14 | CC(C)(C)S(=O)(=O)N[C@H]1CC[C@H](c2[nH]nc(-c3ccccc3)c2F)CC1 [IVb-3] | –
20 | 9.55 | – | – | – | – | CC(C)(C)S(=O)(=O)N[C@H]1CC[C@H](c2cc3cc(-c4ccccn4)ccc3[nH]2)CC1 [Ia-7] | –
21 | 9.54 | – | – | – | – | CC(C)(C)S(=O)(=O)N[C@H]1CC[C@H](c2cc3nc(-c4ccccn4)ccc3[nH]2)CC1 [Ib-14] | –
22 | 8.66 | – | – | 2.6 | 6.4 | CC(C)(C)S(=O)(=O)N[C@H]1CC[C@H](c2nc(-c3ccccc3)n[nH]2)CC1 [Va-2] | –
23 | – | – | – | 3.82 | 9.1 | CC(C)(C)S(=O)(=O)N[C@H]1CC[C@H](c2nc(-c3cccc(Cl)c3)n[nH]2)CC1 [Va-5] | –
